Structures can show the parent of a compound that is named as a salt. Where two headings read alike, the source gives them in different places.
Details: human, pH 7.4

SMILES	The cumulative amount of test compounds (1 h)	The cumulative amount of test compounds (2 h)	The cumulative amount of test compounds (4 h)	The cumulative amount of test compounds (8 h)
CCCCC(=O)Oc1ccc(C[C@H](N)C(=O)OC(C)C)cc1OC(=O)CCCC.Cl [Compound-13, (S)-4-(2-amino-3-isopropoxy-3-oxopropyl)-1,2-phenylene dipentanoate hydrochloride]	0.52 mg	1.05 mg	2.10 mg	4.23 mg
CCC(CC)C(=O)Oc1ccc(CCNC(=O)OC2CCC3CCCCN3C2)cc1OC(=O)C(CC)CC (stereo not drawn) [Compound-7, 4-(2-((((-octahydro-1H-quinolizin-3-yl)oxy)carbonyl)amino)ethyl)-1,2,-phenylene bis(2-ethylbutanoate) acetate]	0.64 mg	1.27 mg	2.57 mg	5.05 mg
CCOC(=O)NCCc1ccc(OC(=O)CNC)c(OC(=O)c2ccccc2)c1 [Compound-9b, 5-(2-((ethoxycarbonyl)amino)ethyl)-2-(2-methylamino)acetoxy)phenyl benzoate hydrochloride]	0.62 mg	1.26 mg	2.48 mg	4.95 mg
CNCC(=O)Oc1ccc(C[C@H](NC(=O)OC(C)OC(=O)C(C)C)C(=O)OC(C)C)cc1OC(=O)c1ccccc1 (stereo partly drawn) [Compound-21(a), 5-((2S)-2-(((1-(isobutyryloxy)ethoxy)carbonyl)amino-3-isopropoxy-3-oxopropyl)-2-(2-(methylamino)acetoxy)phenyl benzoate hydrochloride]	0.52 mg	1.08 mg	2.17 mg	4.37 mg
CC(OC(=O)NCCc1ccc2c(c1)OC(=O)CC(N)C(=O)O2)OC(=O)C(C)C (stereo not drawn) [Compound-8b, 1-(((2-(3-amino-2,5-dioxo-2,3,4,5-tetrahydrobenzo[b][1,4]dioxocin-8-yl)ethyl)carbamoyl)oxy)ethyl isobutyrate hydrofluoride]	0.62 mg	1.24 mg	2.47 mg	4.85 mg
Br.CNCC(=O)OC(C)OC(=O)NCCc1ccc(OC(=O)c2ccccc2)c(OC(=O)c2ccccc2)c1 (stereo not drawn) [Compound-3, 4-(6-methyl-4,8-dioxo-5,7-dioxa-2,9-diazadecan-11-yl)-1,2,-phenylene dibenzoate hydrobromide]	0.61 mg	1.23 mg	2.49 mg	5.01 mg
CC(=O)Oc1ccccc1C(=O)O [Compound-32, acetylsalicylic acid, reference compound]	0.001 mg	0.001 mg	0.002 mg	0.003 mg
CNCC(=O)Oc1cc(C[C@H](NC(=O)OC(C)OC(=O)C(C)C)C(=O)OC(C)C)ccc1OC(=O)c1ccccc1 (stereo partly drawn) [Compound-21(b), 4-((2S)-2-(((1-(isobutyryloxy)ethoxy)carbonyl)amino-3-isopropoxy-3-oxopropyl)-2-(2-(methylamino)acetoxy)phenyl benzoate hydrochloride]	0.51 mg	1.05 mg	2.08 mg	4.19 mg
CC(C)OC(=O)[C@H](Cc1ccc(OC(=O)C(C)C)c(OC(=O)C(C)C)c1)NC(=O)C1CCN2CCCCC2C1.Cl (stereo partly drawn) [Compound-19, 4-((2S)-3-isopropoxy-3-2-(octahydro-1H-quinolizine-2-carboxamido)-3-oxopropyl)-1,2-phenylene bis(2-methylpropanoate) hydrochloride]	0.48 mg	0.98 mg	2.02 mg	4.09 mg
CC(C(=O)O)c1cccc(Oc2ccccc2)c1 (stereo not drawn) [Compound-34, 2-(3-phenoxyphenyl) propionic acid, reference compound]	0.001 mg	0.001 mg	0.002 mg	0.003 mg
CC(C(=O)OCCN(C)C)c1cccc(Oc2ccccc2)c1.Cl (stereo not drawn) [Compound-25, 2-(dimethylamino)ethyl 2-(3-phenoxyphenyl) propionate.hydrochloride]	1.15 mg	2.31 mg	4.58 mg	9.22 mg
CC(C(=O)SCCN(C)C)c1cccc(Oc2ccccc2)c1.Cl (stereo not drawn) [Compound-26]	1.17 mg	2.33 mg	4.65 mg	9.31 mg
CC(C)OC(=O)[C@H](Cc1ccc(OC(=O)c2ccccc2)c(OC(=O)c2ccccc2)c1)NC(=O)CN.Cl [Compound-16]	0.56 mg	1.13 mg	2.23 mg	4.49 mg
CC(C)OC(=O)[C@H](Cc1ccc2c(c1)OC(=O)CC(N)C(=O)O2)NC(=O)OC(C)OC(=O)C(C)C (stereo partly drawn) [Compound-20(a), (2S)-isopropyl 3-(3-amino-2,5-dioxo-2,3,4,5-tetrahydrobenzo[b][1,4]dioxocin-8-yl)-2-(((1-(isobutyryloxy)ethoxy)carbonyl)amino)propanoate hydrobromide]	0.42 mg	0.88 mg	1.75 mg	3.49 mg
CCN(CC)CCOC(=O)C(C)c1ccc(CC(C)C)cc1.Cl (stereo not drawn) [Compound-28, 2-(diethylamino)ethyl 2-(4-isobutylphenyl)propionate hydrochloride]	1.15 mg	2.28 mg	4.57 mg	9.19 mg
CC(C)OC(=O)[C@H](Cc1ccc(OC(=O)c2ccccc2)c(OC(=O)c2ccccc2)c1)NC(=O)C1CCNCC1 [Compound-18, (S)-4-(3-isopropoxy-3-oxo-2-(piperidine-4-carboxamido)propyl)-1,2-phenylene dibenzoate hydrochloride]	0.52 mg	1.03 mg	2.10 mg	4.19 mg
CC(C)OC(=O)[C@H](Cc1ccc2c(c1)OC(=O)C(N)CC(=O)O2)NC(=O)OC(C)OC(=O)C(C)C (stereo partly drawn) [Compound-20(b), (2S)-isopropyl 3-(4-amino-2,5-dioxo-2,3,4,5-tetrahydrobenzo[b][1,4]dioxocin-8-yl)-2-(((1-(isobutyryloxy)ethoxy)carbonyl)amino)propanoate hydrobromide]	0.43 mg	0.85 mg	1.78 mg	3.52 mg
Cl.NC(Cc1ccccc1)C(=O)NCCc1ccc(OC(=O)c2ccccc2)c(OC(=O)c2ccccc2)c1 (stereo not drawn) [Compound-4, 4-(2-(2-amino-3-phenylpropanamido)ethyl)-1,2,-phenylene dibenzoate hydrochloride]	0.59 mg	1.21 mg	2.45 mg	4.93 mg
CNCC(=O)NCCc1ccc(OC(=O)c2ccccc2)c(OC(=O)c2ccccc2)c1.Cl [Compound-1, 4-(2-(2-(methylamino)acetamido)ethyl)-1,2,-phenylene dibenzoate hydrochloride]	0.67 mg	1.33 mg	2.67 mg	5.25 mg
CC(OC(=O)NCCc1ccc2c(c1)OC(=O)C(N)CC(=O)O2)OC(=O)C(C)C (stereo not drawn) [Compound-8a, 1-(((2-(4-amino-2,5-dioxo-2,3,4,5-tetrahydrobenzo[b][1,4]dioxocin-8-yl)ethyl)carbamoyl)oxy)ethyl isobutyrate hydrofluoride]	0.63 mg	1.22 mg	2.43 mg	4.83 mg
CCC(CC)OC(=O)[C@H](Cc1ccc(OC(=O)c2ccccc2)c(OC(=O)c2ccccc2)c1)NC(=O)C1CCCN1 (stereo partly drawn) [Compound-17, 4-((2S)-3-oxo-3-(pentan-3-yloxy)-2-(pyrrolidine-2-carboxamido)propyl)-1,2-phenylene dibenzoate hydrofluoride]	0.58 mg	1.15 mg	2.33 mg	4.71 mg
CCC(CC)C(=O)Oc1ccc(CCNC(=O)C2CCNCC2)cc1OC(=O)C(CC)CC.Cl [Compound-6]	0.63 mg	1.25 mg	2.53 mg	5.03 mg
CCOC(=O)[C@@H](N)Cc1ccc(OC(C)=O)c(OC(C)=O)c1.Cl [Compound-14, (S)-4-(2-amino-3-ethoxy-3-oxopropyl)-1,2-phenylene diacetate hydrochloride]	0.60 mg	1.21 mg	2.44 mg	4.82 mg
CCN(CC)CCOC(=O)c1ccccc1Nc1c(Cl)ccc(C)c1Cl [Compound-23, 2-(diethylamino)ethyl 2-[(2,6-dichloro-3-methylphenyl)amino]benzoate.acetate]	0.85 mg	1.69 mg	3.38 mg	6.85 mg
